The subject of assay [1] is CD31-positive microvessels in Matrigel plugs. The assay is described as follows: Anti-angiogenic activity in VEGF-165 and FGF-2 treated Matrigel plugs. Type of assay: in vivo, mouse. The settings on record: for protection from new blood vessel formation: compared to vehicle control animals; for presence of endothelial cells in Matrigel plugs: mouse, in vivo. As to the method:
VEGF-165 and FGF-2 treated Matrigel plugs will be implanted on Day 0 into C57BL/6 mice. Mice will be treated with either vehicle, AGX51, AGX-A, or a compound of the present technology. The AGX51, AGX-A, and compound of the present technology will be provided either in the plugs (25 μg/mg) or by daily ip treatment (30 or 100 mg/kg) for 10 days. Plugs will be harvested on Day 10, fixed and paraffin embedded. Three sections ([…] thickness) of each plug will be stained with an anti-CD31 antibody and counterstained with hematoxylin and eosin stain. CD31-positive microvessels will be counted for one entire cross-section per plug and the average micro-vessel density±SD vessels will be determined. Student's t-test will be used for statistical analysis.

Another assay deals with cells. The assay is described as follows: Cell killing / cell viability assay. The assay is classed as cell-based. The procedure:
Cell viability assays. Cell lines will be seeded in a 96 well plate (5000 cells per well). After overnight incubation, cells will be treated with a compound of the present technology and incubated for 24 hours then MTT reagent (5 mg/mL) will be added per well and the cells will be incubated for four hours. Following incubation, media will be aspirated and 200 μL DMSO will be added per well. Absorbance will then be measured at 570 nm using a plate reader (Synergy 2, BioTek). Cell growth profiles will be determined by seeding 38,000 cells in a 24-well plate, in triplicate for each time point, and counting the cells on days 1, 3 and 5 after seeding, using trypan blue exclusion of dead cells.

In a further assay the test system is DU145 cells. Nature of the assay: Prostate cancer cell morphology, growth and death. Type of assay: cell-based. As to conditions: for outcome of treatment of DU145 cells: after six days; for effect on DU145 cells (health, proliferation): after three days. As to the method: Prostate cancer cell lines DU145 and PC3 (in 10% BCS) will be cultured in Ham's F12 (Gibco, Carlsbad, Calif.) medium containing 10% BCS (Hyclone, Logan, Utah) and appropriate antibiotics (pen/strep, fungizaone, and gentamycin (Invitrogen Inc., Carlsbad, Calif.). All cells will be cultured at 37° C. in a fully humidified atmosphere containing 5% CO2.
At 50% confluence, the cells will be treated with either 100 μM DMSO, AGX51, AGX-A, or a compound of the present technology. The cell morphology and growth will be monitored daily for 1 week by microscopy for changes in morphology or cell death. Apoptosis will be determined by measuring caspase 3 and caspase 7 activities using the Caspase-Glo 3/7 Assay system from Promega (Madison, Wis.).

For the next assay, the system named is LLC cancer cells. Nature of the assay: Metastatic activity in LLC mouse model. The settings on record: daily ip. The assay is classed as in vivo. The procedure:
Thirty C57BL/6 mice will be implanted with 7.5×10^5 LLC cancer cells/animal. Seven days after implantation, 5M/5F per group will be treated daily ip for 25 days with dosing vehicle (DMSO), AGX51, AGX-A, or a compound of the present technology. Fourteen days after implantation, another group of 5M/5F animals will be treated daily ip for 18 days with 50 mg/kg of AGX51, another group of 5M/5F animals will be treated daily ip for 18 days with 50 mg/kg of AGX-A, and another group of 5M/5F animals will be treated daily ip for 18 days with a compound of the present technology. Tumors will be measured three times from Day 7 to 14. On Day 14, the tumors will be excised. The animals will be necropsied for the presence of lung metastases on day 32, 18 days post excision.

For assay [2], the system named is cholangiocarcinoma PDX RomeP_PHCH_X_0008a. The assay is described as follows: Murine patient-derived xenograft model of cholangiocarcinoma, tumor volume. Type of assay: in vivo, mouse. As to conditions: NSG mice, 50 or 100 mg/kg p.o. BIDx5 x 4 weeks. An excerpt: An animal model of cholangiocarcinoma predictive of anti-cholangiocarcinoma drug efficacy in humans, as described in Mattar, M. et al. Establishing and Maintaining an Extensive Library of Patient-Derived Xenograft Models. Front Oncol. 2018 Feb.
• Mice: NSG females, 6-8 weeks old • PDX: RomeP_PHCH_X_0008a, serially transplanted sc with matrigel • Treatment Groups (at least 5 animals/group): treatments started when tumors reached 100 mm^3 (“Day 0” for each animal), dosed via oral gavage • Group 1. Saline with 10% by weight 2-hydroxypropyl-β-cyclodextrin (“Vehicle”), p.o. twice daily for 5 days per week (“BIDx5”) for 4 weeks (“×4 weeks”) • Group 2. AGX-A 50 mg/kg in Vehicle, p.o. BIDx5×4 weeks • Group 3. AGX-A 100 mg/kg in Vehicle, p.o. BIDx5×4 weeks • Group 4. AGX-502 50 mg/kg in Vehicle, p.o. BIDx5×4 weeks • Group 5. AGX-502 100 mg/kg in Vehicle, p.o. BIDx5×4 weeks.
Tumor volumes, weights, and clinical signs were monitored a minimum of twice per week for each animal in each group throughout the study. Mice were sacrificed by CO2 asphyxiation once the tumor volume exceeded 2000 mm^3 or body weight loss was higher than 10%. Upon completion of the experiment, tumors were harvested and processed for immunoblotting and/or immunohistochemistry assays.
A general note: Xenograft models place foreign cells or tissue in a host animal.

The target of a further assay is T1, ID1 (Homo sapiens, UniProt P41134).
T1 construct: endogenous in cells
T1 sequence (P41134 1-155): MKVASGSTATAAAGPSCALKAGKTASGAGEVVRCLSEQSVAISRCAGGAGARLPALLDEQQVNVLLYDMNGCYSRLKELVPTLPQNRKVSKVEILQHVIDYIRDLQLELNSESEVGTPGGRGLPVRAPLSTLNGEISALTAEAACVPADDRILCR
Nature of the assay: Activity against ID1 in cells (Western Blot). The assay is classed as cell-based. On the technique in general: A western blot detects proteins with antibodies after separation by electrophoresis.

Where only a bound is given, the exact number is not on record here.

With `COc1ccccc1C(CCNCc1ccccc1)c1ccc(OC(C)C)cc1` (centres unmarked) [AGX-A, N-benzyl-3-(4-isopropoxyphenyl)-3-(2-methoxyphenyl)propan-1-amine], in assay [1], the “protection from new blood vessel formation” value is reported as “significant protection” and the “presence of endothelial cells in Matrigel plugs” value is “significantly decrease”. Moreover, the “time to complete cell killing” value in the assay on cells is ≤ 24 h. Moreover, in the assay on DU145 cells, the “outcome of treatment of DU145 cells” value is on record as “cell death” and the “effect on DU145 cells (health, proliferation)” value was “pronounced effect”. In addition, the lung metastases result in the assay with LLC cancer cells is on record as “profoundly diminish”.

As to `COc1ccccc1C(CCNC(C)c1ccccc1)c1ccc(OC(C)C)cc1` (centres unmarked) [AGX-502], in the assay on cells, the “activity by cell killing” value was “very active” and the “time to complete cell killing” value is ≤ 8 h. In addition, the “IC50 (24 h)” value with cells (24 h, initial testing) is on record as “significantly favorable”. For the same compound, in assay [2], the “anti-cancer efficacy (tumor volume)” value is reported as “dose-dependent anti-cancer efficacy”. Also, at ID1, the “activity against ID1 in cells” value is “significant activity” and the “activity by Western Blot” value was “very active”.

With `CCC(=O)N(CCC(c1ccc2c(c1)OCO2)c1ccccc1OC)Cc1ccccc1` (racemic) [AGX51, N-(3-(benzo[d][1,3]dioxol-5-yl)-3-(2-methoxyphenyl)propyl)-N-benzylpropionamide], in assay [1], the “protection from new blood vessel formation” value is given as “significant protection” and the “presence of endothelial cells in Matrigel plugs” value is given as “significantly decrease”. Further, in the assay with DU145 cells, the “outcome of treatment of DU145 cells” value is recorded as “cell death” and the “effect on DU145 cells (health, proliferation)” value is “pronounced effect”. In addition, the lung metastases entry in the assay on LLC cancer cells is “profoundly diminish”.

The values above are taken from US20250230124A1, “SMALL MOLECULE INHIBITORS OF ID PROTEINS” (MEMORIAL SLOAN-KETTERING CANCER CENTER, priority 2022, published 2025).
